Experimental data taken from patent publication US4376789A, “Surfactants which are polyhydric alcohol partial esters of adducts of maleic anhydride with an unsaturated carboxylic acid” (Grillo-Werke AG, priority 1980, dated 1983).

System: eye
Experiment: Eye irritation test according to Draize
Assay type: in vivo
Text: The good compatibility of the partial esters according to the invention with skin and mucous membranes is evident from the following investigations. In Table 1, the results of an eye irritation test, according to Draize, for the products of the invention are compared with those of anionic surfactants known to be acceptable dermatologically. It should be noted that substantially higher concentrations of the active products of the invention, than of the prior art compounds, were used in the test.
The Draize test was performed according to the provisions of the Appraisal of the Safety of Chemicals in Food, Drugs and Cosmetics, published by the United States Food and Drug Administration in 1959. According to this method, appraisal points are assigned as follows: […]

| Compound | Evaluation points according to Draize score (concentration % active substance: 100 (Examples 1, 3, 4), 65 (Example 2), 50 (Example 5, Na lauryl ether sulfate, undecylic acid semi-ester Na salt), 40 (tallow coco fat alcohol sulfate Na salt), 35 (ammonium lauryl sulfate)) [Points] | Evaluation points according to Draize score (in vivo) [Points] | Evaluation range (Draize) (in vivo) |
| --- | --- | --- | --- |
| CCCCCCCCCCCCOS(=O)(=O)O.N [Ammonium lauryl sulfate] | 12.9 | – | – |
| CCCCCCCCCCC(=O)NCCOC(=O)CC(C(=O)[O-])S(=O)(=O)O.CCCCCCCCCCC(=O)NCCOC(=O)CC(C(=O)[O-])S(=O)(=O)O.[Na+].[Na+] (stereo not shown) [Na salt of undecylic acid monethanolamide sulfo succinic acid semi-ester] | – | 19.6 | Slightly irritant |
| Na lauryl ether sulfate | – | 14.2 | Slightly irritant |
| Tallow coco fat alcohol sulfate Na salt | – | 24.3 | Slightly irritant |
